Experimental data: patent US20210379077A1, “TOPOISOMERASE II CATALYTIC INHIBITOR COMPOUND THERAPEUTICS FOR CANCER TREATMENT, METHODS AND USES” (The University of British Columbia, priority 2018, published 2021)
“Also recorded” adds a separate entry of the source.

Experiments:
[1] = molecular target: T1, human TOP2a (Homo sapiens, UniProt P11388); experiment: K-DNA decatenation assay; format: biochemical; conditions: 0-50 μM, 37° C., 1 hour
T1 construct: purchased TopoGENE (TopoGEN) TG1001 (assay kit)
T1 sequence (P11388 whole entry): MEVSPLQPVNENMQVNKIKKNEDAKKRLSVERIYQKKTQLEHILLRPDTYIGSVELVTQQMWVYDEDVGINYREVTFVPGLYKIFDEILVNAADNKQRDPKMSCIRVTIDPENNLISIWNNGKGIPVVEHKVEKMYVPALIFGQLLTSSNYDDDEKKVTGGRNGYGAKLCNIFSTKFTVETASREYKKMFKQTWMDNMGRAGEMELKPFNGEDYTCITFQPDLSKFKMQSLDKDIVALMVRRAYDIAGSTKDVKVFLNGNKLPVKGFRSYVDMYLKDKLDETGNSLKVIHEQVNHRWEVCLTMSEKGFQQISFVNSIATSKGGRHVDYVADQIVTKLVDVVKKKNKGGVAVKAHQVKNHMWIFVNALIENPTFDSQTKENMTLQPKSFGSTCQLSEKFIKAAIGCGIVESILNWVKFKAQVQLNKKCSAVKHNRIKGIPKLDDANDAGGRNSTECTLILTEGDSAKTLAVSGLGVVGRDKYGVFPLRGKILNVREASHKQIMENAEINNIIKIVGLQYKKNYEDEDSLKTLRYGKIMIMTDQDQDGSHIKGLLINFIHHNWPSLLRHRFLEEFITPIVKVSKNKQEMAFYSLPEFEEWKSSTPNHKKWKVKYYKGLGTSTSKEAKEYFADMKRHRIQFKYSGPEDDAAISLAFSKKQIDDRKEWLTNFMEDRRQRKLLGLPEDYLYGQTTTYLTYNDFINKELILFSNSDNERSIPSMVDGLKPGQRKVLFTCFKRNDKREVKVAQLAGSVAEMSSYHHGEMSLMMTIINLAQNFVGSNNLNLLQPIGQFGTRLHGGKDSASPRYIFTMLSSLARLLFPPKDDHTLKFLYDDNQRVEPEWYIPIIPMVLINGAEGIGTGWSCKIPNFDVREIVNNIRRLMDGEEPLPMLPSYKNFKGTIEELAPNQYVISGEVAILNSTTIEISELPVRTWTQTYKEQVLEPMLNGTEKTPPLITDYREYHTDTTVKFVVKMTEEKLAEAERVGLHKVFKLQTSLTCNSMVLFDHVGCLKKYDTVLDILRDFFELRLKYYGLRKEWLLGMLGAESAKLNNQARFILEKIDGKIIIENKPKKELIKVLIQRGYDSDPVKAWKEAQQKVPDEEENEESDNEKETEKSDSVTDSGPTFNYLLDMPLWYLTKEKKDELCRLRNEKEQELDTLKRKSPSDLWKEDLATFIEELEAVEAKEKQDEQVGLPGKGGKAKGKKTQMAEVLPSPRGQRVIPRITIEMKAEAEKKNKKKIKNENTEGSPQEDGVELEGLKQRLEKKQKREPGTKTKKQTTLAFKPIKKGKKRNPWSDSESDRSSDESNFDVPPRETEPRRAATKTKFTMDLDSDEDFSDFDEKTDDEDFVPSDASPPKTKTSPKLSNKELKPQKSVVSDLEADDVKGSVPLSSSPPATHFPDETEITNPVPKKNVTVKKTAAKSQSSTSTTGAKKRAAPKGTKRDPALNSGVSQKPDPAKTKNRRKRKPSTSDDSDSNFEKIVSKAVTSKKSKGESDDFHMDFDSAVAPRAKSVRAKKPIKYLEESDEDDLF
Procedure: (§1) DNA samples were separated by electrophoresis on 0.8% agarose gels and visualized by ethium bromide staining. The positions of K-DNA and decatenated (D) DNA products are marked by arrows. Experiments were repeated five times and the densitometry of the D bands were used to establish an inhibition curve to calculate IC50. (b) Supercoiled pHOT™ plasmid was incubated with human TOP2a in the presence of 50 μM Etopside, 50 uM ICRF193 or 0-50 μM of compound #60 (Top60) compound at 37° C. for 1 hour. DNA products were separated by electrophoresis on 1% agarose gels and visualized by ethium bromide staining. The positions of supercoiled (SC), nicked (N), and relaxed (R) DNA bands are marked by arrows. Experiments were repeated five times and the densitometiy of the SC bands were used to establish an inhibition curve to calculate IC50. (c) Supercoiled pHOT™ plasmid was incubated with Topoisomerase I prior to addition of either mAMSA or compound #60 (Top60) at concentrations of 0, 5, 10, 25 and 50 μM at 37° C. for 30 minutes. Reactions were stopped by 1% SDS at 37° C. for 15 minutes. DNA products were separated by electrophoresis on a 1% agarose gels and visualized by ethium bromide staining. […]

[2] = molecular target: Topo IIα (Homo sapiens, UniProt P11388); experiment: DNA relaxation assay with supercoiled pHOT plasmid; format: biochemical; parameters: purchased TopoGENE (TopoGEN) TG2000H; conditions: 0-50 μM, 37° C., 1 hour
Chain of Topo IIα (P11388 whole entry): as above
Procedure: as §1

[3] = system: K562 cells; experiment: MTS cell proliferation assay; format: cell-based; conditions: 0-20 μM 48 hours, 20 μM 0-72 hours, listed as Top60
Procedure: Cytotoxicity was evaluated by measuring LDH levels from cell culture media; (b) K562 cells were treated with either vehicle or 10-20 μM of Top60, Etoposide and ICRF187 for 4 hours. Whole cell lyses were collected to measure γH2AX levels with vinculin as the loading control; (c) K562 cells were treated with 0, 1, 5, 10, 15 and 20 μM of Top60, 20 μM Etoposide or 20 uM ICRF187 for 48 hours. Cell proliferation rates were determined by MTS assays; and (d) K562 cells were treated with 20 μM of Top60, Etoposide or ICRF187 for 0, 24, 48 and 72 hours. Cell proliferation rates were measured by MTS assays. All results were collected from three independent experiments.
BrDU incorporation and cell proliferation assays—Cell proliferation rates were measured by using the CellTitre™ 96 AqueousOne™ kit (Promega™) and bromodeoxyuridine (BrdU) assay kit (Millipore™) according to the manufacturer's protocol, with minor modifications as we have previously described by Li H. et al.^19

[4] = system: pHOT plasmid DNA; experiment: DNA intercalating assay; conditions: 0, 5, 10, 25 and 50 μM, compared with m-AMSA
Procedure: as §1, with “minutes.” for “minutes. Reactions were stopped by 1% SDS at 37° C. for 15 minutes. DNA products were separated by electrophoresis on a 1% agarose gels and visualized by ethium bromide staining.”
Top60 is a catalytic inhibitor of Topo II To verify that our lead Compound 60(Top60), the formation of ds DNA breaks was assayed both in and outside of cells. […] Furthermore, H2AXγ protein expression was assessed by Western blot to determine if the lead compound could cause DNA damage in cells, and compared to Etoposide as a control (FIG. 3b). […]

[5] = system: Hela cells; experiment: FACS cell cycle assay; format: cell-based; conditions: 20 μM, 48 hours
Procedure: BrdU incorporation rates were determined by Millipore™ BrdU incorporation kit (CAT #2750). (b-c) Hela cells were treated with vehicle or 20 μM of Top60 for 48 hours. Cells were then stained with APC-BrdU and 7-AAD for 4 hours, and subjected to FACS assays to determine cell populations at Sub G0/G1, G0/G1, S, and G2/M phases. Results were collected from three independent experiments, (d-e) Hela cells were treated with either vehicle or 20 μM T60 for 48 hours. Cells were fixed and co-stained with DAPI and phalloidin, and examined by confocal microscopy. Fifty cells were chosen from five high power fields to analyze nuclei sizes by the Image J software. Representative bright field microscopic images were also shown. Scale bar=50 μm.
FACS assays—Cell cycling was assessed by using BrdU incorporation into S-phase DNA through using the APC BrdU flow kit (BD Pharmingen™; Franklin Lakes, N.J., USA) according to manufacturer's protocol. Briefly, 1 mM of BrdU was added to cells and incubated for 6 hours. Cells were incubated with anti-BrdU antibody and stained with 7-AAD before processing the cells for flow cytometry.

SMILES: O=C(Nc1ccc(Nc2ccccc2)cc1)c1ccc[nH]c1=S [Compound 60]
- IC50 in the decatenation assay [1]: nanomolar
- IC50 in the relaxation assay [2]: nanomolar
- cell proliferation (MTS) [3]: strong inhibitory effects; also recorded: inhibits cell proliferation
- DNA intercalation [4]: not an intercalator
- cell population in G2/M [5]: increased cell population in G2/M
- cell population in S-phase [5]: large cell population delayed in S-phase
